pEC50: −log10 of the molar value.

For this experiment, the target named is Growth hormone secretagogue receptor type 1 (Homo sapiens, UniProt Q92847). In words: SUPPLEMENTARY: Agonist activity at GSHR by FLIPR assay. Same assay as CHEMBL941945. It counts as functional.
Sequence of Growth hormone secretagogue receptor type 1 (Q92847 whole entry): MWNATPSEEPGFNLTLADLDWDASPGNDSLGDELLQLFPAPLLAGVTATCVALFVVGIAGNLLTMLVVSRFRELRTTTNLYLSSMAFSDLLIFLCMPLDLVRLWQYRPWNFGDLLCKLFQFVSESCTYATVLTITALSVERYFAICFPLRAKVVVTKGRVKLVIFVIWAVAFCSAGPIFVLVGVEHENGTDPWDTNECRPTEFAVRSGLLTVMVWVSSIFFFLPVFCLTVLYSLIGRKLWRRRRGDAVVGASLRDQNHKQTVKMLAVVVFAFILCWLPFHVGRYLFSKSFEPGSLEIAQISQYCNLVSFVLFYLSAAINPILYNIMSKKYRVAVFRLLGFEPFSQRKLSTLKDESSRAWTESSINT
A word on the pEC50: it is −log10 of the EC50, conventionally taken in molar units. Higher therefore signals a small EC50. Regarding `COc1ccc(NS(=O)(=O)c2ccc(-c3ccoc3)s2)cc1N1C[C@@H](C)N[C@@H](C)C1`, the pEC50 was 7.90.

Turning to `Cc1ccc(N2C[C@@H](C)N[C@@H](C)C2)cc1NS(=O)(=O)c1ccc(Br)cc1`, the pEC50 was 7.00.

With `COc1ccc(N2C[C@@H](C)N[C@@H](C)C2)cc1NS(=O)(=O)c1ccc(-c2cccc(C)n2)cc1`, the pEC50 is 8.00.

On to `COc1ccc(N2C[C@@H](C)N[C@@H](C)C2)cc1NS(=O)(=O)c1ccc(-c2ccccc2C)s1`, for which the pEC50 is 7.60.

For `COc1cc(F)c(N2C[C@@H](C)N[C@@H](C)C2)cc1NS(=O)(=O)c1ccc(-c2ccccn2)s1`, the negative-log EC50 (pEC50) is 7.70.

With `COc1ccc(NS(=O)(=O)c2ccc(-c3cnco3)cc2)cc1N1C[C@@H](C)N[C@@H](C)C1`, the pEC50 is 7.40.

The compound `Cc1ccc(-c2ccc(S(=O)(=O)Nc3cc(N4C[C@@H](C)N[C@@H](C)C4)ccc3O)cc2)o1` gave a pEC50 of 8.30.

`COc1ccc(N2C[C@@H](C)N[C@@H](C)C2)cc1NS(=O)(=O)c1ccc(-c2cccc(F)c2F)cc1` gave a pEC50 of 7.50.

Take `COc1ccc(N2C[C@@H](C)N[C@@H](C)C2)cc1NS(=O)(=O)c1ccc2c(c1)CCC(C)(C)O2`: the pEC50 is 7.50.

`COc1ccc(NS(=O)(=O)c2ccc(-c3cccs3)cc2F)cc1N1C[C@@H](C)N[C@@H](C)C1` gave a pEC50 of 8.60.

Compound `COc1ccc(N2C[C@@H](C)N[C@@H](C)C2)cc1NS(=O)(=O)c1ccc(-c2nccs2)cc1` had a pEC50 of 7.90.

As for `C[C@@H]1CN(c2ccc(F)c(NS(=O)(=O)c3ccc(-c4ccccc4)cc3)c2)C[C@H](C)N1`, the pEC50 is 7.50.

In turn, `COc1ccc(N2C[C@@H](C)N[C@@H](C)C2)cc1NS(=O)(=O)c1cccc(Cl)c1Cl` gave a pEC50 of 7.80.

Turning to `C[C@@H]1CN(c2ccc(O)c(NS(=O)(=O)c3ccc(-c4ccccc4F)s3)c2)C[C@H](C)N1`, the pEC50 is 8.20.

On to `COc1ccc(N2C[C@@H](C)N(C)[C@@H](C)C2)cc1NS(=O)(=O)c1ccc(-c2cccs2)cc1`, for which the pEC50 is 7.90.

For the compound `COc1ccc(N2C[C@@H](C)N[C@@H](C)C2)cc1NS(=O)(=O)c1ccc(-c2cc(C)cs2)s1`, the pEC50 is 8.70.

On to `C[C@@H]1CN(c2ccc(F)c(NS(=O)(=O)c3ccc(-c4ccoc4)cc3Cl)c2)C[C@H](C)N1`, for which the pEC50 was 7.70.

The compound `COc1ccc(N2C[C@@H](C)N[C@@H](C)C2)cc1NS(=O)(=O)c1cccc(-c2cccs2)c1` gave a pEC50 of 7.80.

Compound `COc1ccc(N2CCN[C@@H](C)C2)cc1NS(=O)(=O)c1ccc(-c2cccs2)cc1` gave a pEC50 of 6.80.

`COc1ccc(N2CCN[C@H](C)C2)cc1NS(=O)(=O)c1ccc(-c2cccs2)cc1` had a pEC50 of 7.50.

Consider `COc1ccc(NS(=O)(=O)c2ccc(-c3ccccc3)s2)cc1N1C[C@@H](C)N[C@@H](C)C1`, for which the pEC50 was 9.00. Compared with the last compound, the pEC50 is 1.50 log units higher.

`COc1ccc(N2C[C@@H](C)N[C@@H](C)C2)cc1NS(=O)(=O)c1ccc(-c2cnco2)cc1` gave a pEC50 of 7.30. Against the preceding compound, the pEC50 is 1.70 log units lower.

`COc1ccc(NS(=O)(=O)c2ccc(Cl)c(Cl)c2)cc1N1C[C@@H](C)N[C@@H](C)C1` gave a negative logarithm of the EC50 (pEC50) of 7.20.

Compound `COc1ccc(N2C[C@@H](C)N[C@@H](C)C2)cc1NS(=O)(=O)c1cccc(Br)c1` had a negative-log EC50 (pEC50) of 6.80.

Consider `COc1ccc(N2C[C@@H](C)N[C@@H](C)C2)cc1NS(=O)(=O)c1ccc(-c2ccc(C)o2)nc1`, for which the pEC50 is 8.10.

`COc1ccc(NS(=O)(=O)c2ccc(-n3cccn3)cc2)cc1N1C[C@@H](C)N[C@@H](C)C1` gave a pEC50 of 8.20.

Regarding `C[C@@H]1CN(c2cccc(NS(=O)(=O)c3ccc4ccccc4c3)c2)C[C@H](C)N1`, the pEC50 was 7.80.

`COc1ccc(N2C[C@@H](C)N[C@@H](C)C2)cc1NS(=O)(=O)c1ccc(-c2csc(C)c2)cc1` had a negative-log EC50 (pEC50) of 8.40. This pEC50 is 0.60 log units higher than that of the compound before.

Compound `COc1ccc(N2C[C@@H](C)N[C@@H](C)C2)cc1NS(=O)(=O)c1ccc(-c2ccco2)nc1` showed a pEC50 of 7.80. This pEC50 lies 0.60 log units lower than the previous one.

Turning to `COc1ccc(N2C[C@@H](C)N[C@@H](C)C2)cc1NS(=O)(=O)c1ccc(-c2cccnc2)s1`, the pEC50 was 7.00.

Regarding `COc1ccc(N2C[C@@H](C)N[C@@H](C)C2)cc1NS(=O)(=O)c1ccc(-c2ccc(C)o2)cn1`, the pEC50 was 8.50.

In turn, `COc1ccc(NS(=O)(=O)c2ccc(-c3cnco3)s2)cc1N1C[C@@H](C)N[C@@H](C)C1` gave a pEC50 of 7.40. Against the preceding compound, the pEC50 is 1.10 log units lower.

`COc1ccc(N2C[C@@H](C)N[C@@H](C)C2)cc1NS(=O)(=O)c1ccc(-c2cnccc2OC)s1`: the pEC50 is 7.50.

In turn, `COc1ccc(N2C[C@@H](C)N[C@@H](C)C2)cc1NS(=O)(=O)c1csc2ccccc12` showed a pEC50 of 8.00.

Consider `COc1ccc(N2C[C@@H](C)N[C@@H](C)C2)cc1NS(=O)(=O)c1ccc(-c2cccnc2)cc1`, for which the pEC50 was 7.00. This pEC50 is 1.00 log units lower than that of the compound before.

As for `CCOc1ccc(N2C[C@@H](C)N[C@@H](C)C2)cc1NS(=O)(=O)c1ccc(-c2cccs2)cc1`, the pEC50 is 7.90.

As to `COc1ncc(N2C[C@@H](C)N[C@@H](C)C2)cc1NS(=O)(=O)c1ccc(-c2ccc(C)o2)c(F)c1`, the pEC50 is 7.20.

In turn, `COc1cc(-c2cccs2)ccc1S(=O)(=O)Nc1cccc(N2C[C@@H](C)N[C@@H](C)C2)c1` gave a pEC50 of 7.70.

On to `COc1ccc(N2C[C@@H](C)N[C@@H](C)C2)cc1NS(=O)(=O)c1ccc(-c2cccs2)nc1`, for which the negative logarithm of the EC50 (pEC50) is 7.30.

For `Cc1csc(-c2ccc(S(=O)(=O)Nc3cc(N4C[C@@H](C)N[C@@H](C)C4)ccc3C)cc2)c1`, the pEC50 was 8.90.

For the compound `COc1ccc(NS(=O)(=O)c2ccc(-c3cccs3)s2)cc1N1C[C@@H](C)N[C@@H](C)C1`, the pEC50 is 8.70. This pEC50 lies 0.20 log units lower than the previous one.

Regarding `COc1ccc(N2C[C@@H](C)N[C@@H](C)C2)cc1NS(=O)(=O)c1ccc(-c2cc(C)cs2)cc1C`, the pEC50 is 9.40.

Regarding `COc1ccc(NS(=O)(=O)c2ccc(Br)c(C)c2)cc1N1C[C@@H](C)N[C@@H](C)C1`, the pEC50 is 7.40.

Compound `C[C@@H]1CN(c2ccc(F)c(NS(=O)(=O)c3ccc(-c4cccs4)cc3Cl)c2)C[C@H](C)N1` had a pEC50 of 8.10.

The compound `COc1ccc(N2C[C@@H](C)N[C@@H](C)C2)cc1NS(=O)(=O)c1ccc(Cl)c2ccccc12` showed a pEC50 of 7.30.

`COc1ccc(NS(=O)(=O)c2ccc(Oc3ccccc3)cc2)cc1N1C[C@@H](C)N[C@@H](C)C1` gave a pEC50 of 6.90.

For the compound `Cc1ccc(N2C[C@@H](C)N[C@@H](C)C2)cc1NS(=O)(=O)c1ccc(-c2cccs2)cc1`, the pEC50 is 8.40.

Turning to `COc1ccc(NS(=O)(=O)c2ccc(-c3ccc(F)cc3)cc2)cc1N1C[C@@H](C)N[C@@H](C)C1`, the pEC50 is 7.70.

Regarding `COc1cc(-c2ccco2)ccc1S(=O)(=O)Nc1cccc(N2C[C@@H](C)N[C@@H](C)C2)c1`, the pEC50 is 7.70.

Turning to `Cc1ccc(-c2ccc(S(=O)(=O)Nc3cc(N4C[C@@H](C)N[C@@H](C)C4)c[nH]c3=O)cc2F)o1`, the negative-log EC50 (pEC50) was 8.00.

Compound `COc1ccc(N2C[C@@H](C)N[C@@H](C)C2)cc1NS(=O)(=O)c1ccc(-c2ccc(C)s2)c(C)c1` had a pEC50 of 8.20.

`COc1ccc(NS(=O)(=O)c2ccc(N3CCCC3=O)cc2)cc1N1C[C@@H](C)N[C@@H](C)C1` showed a pEC50 of 7.10.

`COc1ccc(N2C[C@@H](C)N[C@@H](C)C2)cc1NS(=O)(=O)c1ccc(-c2ccc(C)cc2)s1` showed a pEC50 of 7.50.

`COc1ccc(N2C[C@@H](C)N[C@@H](C)C2)cc1NS(=O)(=O)c1cc2cc(Cl)ccc2s1` showed a negative logarithm of the EC50 (pEC50) of 7.60. The pEC50 values of the last two compounds are within 0.2 log units of each other.

`COc1ccc(NS(=O)(=O)c2ccc(-c3c(C)cccc3C)s2)cc1N1C[C@@H](C)N[C@@H](C)C1` had a pEC50 of 7.60.

Take `COc1ccc(N2C[C@@H](C)N[C@@H](C)C2)cc1NS(=O)(=O)c1ccc(-c2csc(C)n2)s1`: the pEC50 is 7.40. Compared with the last compound, the pEC50 is 0.20 log units lower.

For the compound `C[C@@H]1CN(c2ccc(F)c(NS(=O)(=O)c3ccc(-c4ccoc4)c(F)c3)c2)C[C@H](C)N1`, the pEC50 is 7.80. Against the preceding compound, the pEC50 is 0.40 log units higher.

Compound `COc1ccc(NS(=O)(=O)c2ccc(Br)cc2C)cc1N1C[C@@H](C)N[C@@H](C)C1` gave a pEC50 of 7.40.

With `COc1ccc(N2C[C@@H](C)N[C@@H](C)C2)cc1NS(=O)(=O)c1ccc(-c2csnn2)s1`, the pEC50 was 7.60.

`COc1ccc(N2C[C@@H](C)N[C@@H](C)C2)cc1NS(=O)(=O)c1ccc2c(c1)OCCN2C` showed a pEC50 of 7.10.

With `COc1ccc(N2C[C@@H](C)N[C@@H](C)C2)cc1NS(=O)(=O)c1ccc(-c2cnccn2)cc1`, the pEC50 is 7.50.

`COc1ccc(N2C[C@@H](C)N[C@@H](C)C2)cc1NS(=O)(=O)c1ccc(-c2ccc(Cl)s2)cc1` had a negative-log EC50 (pEC50) of 7.90.

In turn, `Cc1cc(S(=O)(=O)Nc2cc(N3C[C@@H](C)N[C@@H](C)C3)ccc2F)ccc1Br` gave a pEC50 of 7.20.

Take `COc1ccc(N2C[C@@H](C)N[C@@H](C)C2)cc1NS(=O)(=O)c1ccc(-c2csc(C)c2)c(F)c1`: the pEC50 is 8.70. Against the preceding compound, the pEC50 is 1.50 log units higher.

For `COc1ccc(N2C[C@@H](C)N[C@@H](C)C2)cc1NS(=O)(=O)c1ccc(-c2ccc(C)s2)c(F)c1`, the pEC50 was 8.40.

The compound `COc1ccc(N2C[C@@H](C)N[C@@H](C)C2)cc1NS(=O)(=O)c1ccc(-c2ccccc2F)cc1` showed a pEC50 of 7.70.

For the compound `COc1ccc(NS(=O)(=O)c2ccc(-c3cc(C)cs3)s2)cc1N1C[C@@H](C)N[C@@H](C)C1`, the pEC50 was 9.10.

For the compound `C[C@@H]1CN(c2cccc(NS(=O)(=O)c3ccc(-c4cccs4)cc3)c2)C[C@H](C)N1`, the pEC50 is 8.20.

Turning to `Cc1cc(-c2ccoc2)ccc1S(=O)(=O)Nc1cc(N2C[C@@H](C)N[C@@H](C)C2)ccc1F`, the pEC50 was 7.50. This pEC50 is 0.70 log units lower than that of the compound before.

Turning to `C[C@@H]1CN(c2ccc(F)c(NS(=O)(=O)c3ccc(-c4cccs4)cc3F)c2)C[C@H](C)N1`, the pEC50 is 7.70. This pEC50 lies 0.20 log units higher than the previous one.

As for `COc1ccc(NS(=O)(=O)c2ccc(-c3cccc(F)c3F)cc2)cc1N1C[C@@H](C)N[C@@H](C)C1`, the pEC50 is 7.50. Compared with the last compound, the pEC50 is 0.20 log units lower.

`C[C@@H]1CN(c2ccc(O)c(NS(=O)(=O)c3ccc(-c4ccco4)cc3)c2)C[C@H](C)N1`: the negative logarithm of the EC50 (pEC50) is 7.80.

For the compound `COc1ccc(NS(=O)(=O)c2cccc3ccccc23)cc1N1C[C@@H](C)N[C@@H](C)C1`, the pEC50 is 7.50.

`COc1ccc(N2C[C@@H](C)N[C@@H](C)C2)cc1NS(=O)(=O)c1ccc2c(Cl)cccc2c1` gave a pEC50 of 8.80.

`COc1ccc(N2C[C@@H](C)N[C@@H](C)C2)cc1NS(=O)(=O)c1ccc(Br)s1`: the pEC50 was 6.90.

`COc1ccc(N2C[C@@H](C)N[C@@H](C)C2)cc1NS(=O)(=O)c1ccc2ccccc2c1` gave a pEC50 of 8.10. This pEC50 lies 1.20 log units higher than the previous one.

For the origin of these results see ChEMBL document CHEMBL2364335, “Structure-activity relationship data for chemical series of achiral agonists of the ghrelin (growth hormone secretagogue) receptor (Supplementary Bioactivity Data for publication CHEMBL1140573)”.
